System: adult T. muris
Assay: Ex vivo adult T. muris automated motility assay (primary/secondary screen at 100 μM and dose-response)
Design: species or system Trichuris muris
Conditions: for PRIMARY_SCREEN_MINUS_LOG_FOLD_CHANGE_MOVEMENT: primary screen; for PRIMARY_SCREEN_MINUS_LOG_FOLD_CHANGE_MOVEMENT / SECONDARY_SCREEN_MINUS_LOG_FOLD_CHANGE_MOVEMENT: adult T. muris motility; for SECONDARY_SCREEN_MINUS_LOG_FOLD_CHANGE_MOVEMENT: secondary screen
Experimental: Severe combined immune deficiency (SCID) mice were bred in the Biological Services Facility at the University of Manchester. Both male and female SCID mice were infected with a high dose of 200 infective embryonated T. muris eggs via oral gavage. At day 35 post-infection, groups of 5 mice were killed and their […] colons removed. Guts were opened longitudinally, washed with pre-warmed Roswell Park Memorial Institute (RPMI) 1640 media supplemented with penicillin (500U/ml) and streptomycin (500μg/ml) and adult T. muris worms gently removed using fine forceps. Worms removed from SCID mice were maintained in RPMI-1640 media supplemented with penicillin (500U/ml) and streptomycin (500μg/ml) at approximately 37°C and studied on the same day. Using fine forceps, individual live worms were placed into 96 well plates containing 75μl of RPMI-1640 medium supplemented with penicillin (500U/ml) and streptomycin (500μg/ml) plus 1% final concentration of DMSO or compound dissolved in DMSO. In the primary screen the test compound concentration was 100μM. Plates were then incubated at 37°C, 5% CO2, and motility was analysed after 24 hours. Worm movement was quantified using an automated motility assay. This system gives an estimate of worm movement in each well by thresholding and quantifying pixel intensity variance over time. An earlier version of this system has been previously described. One adult T. muris worm was used per well, with one well per compound in each replicate of the primary screen. The primary screen was repeated each week for a period of four weeks giving four independent biological replicates from separate parasite batches for each compound. Dose-response curves were calculated with the four factor log-logistic model using the R package drc. The primary screen was carried out at 100μM final concentration. Assay plates were assigned unique IDs and statistical analysis was performed without knowledge of compound identities using R scripts. Once hit wells were identified, well/plate positions were mapped to compound identities using DataWarrior [28]. […] Compounds identified as having encouraging activity from the DMSO solution samples were then resynthesized for confirmatory testing.

[1] = combined primary and secondary screen minus log fold change in movement, adult T. muris, 100 μM

Structure (SMILES)	COMBINED_SCREEN_ACTIVITY [1]	PRIMARY_SCREEN_MINUS_LOG_FOLD_CHANGE_MOVEMENT (100 μM)	SECONDARY_SCREEN_MINUS_LOG_FOLD_CHANGE_MOVEMENT (100 μM)	COMBINED_SCREEN_ACTIVITY (adult T. muris motility screen at 100 μM, combines primary and secondary screen minus log fold change in movement (mean where both are given))
Cc1ccc(CN2C(=O)COCc3cc(-c4cccc(CO)c4)ccc32)cc1 [Compound 123]	-0.1619	-0.1619	–	–
Cn1cc(-c2ccc3c(c2)COCC(=O)N3Cc2ccc3c(c2)OCO3)cn1 [Compound 127]	0.2993	-0.5635	1.162	–
O=C(O)c1cccc(-c2ccc3c(c2)N(Cc2ccccc2)C(=O)COC3)c1 [Compound 117]	-1.457	-1.457	–	–
O=C1COCc2ccc(-c3cccnc3)cc2N1Cc1ccccc1 [Compound 50]	0.07509	0.07509	–	–
Cn1cc(-c2ccc3c(c2)N(Cc2ccccc2)C(=O)COC3)cn1 [Compound 59]	-0.5338	-0.5338	–	–
COc1cccc(CN2C(=O)COCc3cc(-c4ccc(F)cc4OC)ccc32)c1 [Compound 177]	-1.282	-1.282	–	–
COc1ccccc1-c1ccc2c(c1)N(CCc1ccccc1)C(=O)COC2 [Compound 121]	1.0336	1.0336	–	–
COc1ccccc1-c1ccc2c(c1)COCC(=O)N2Cc1ccccc1 [Compound 95]	-1.179	-1.179	–	–
COc1cccc(CN2C(=O)COCc3cc(-c4ccccc4OC)ccc32)c1 [Compound 141]	-1.328	-1.328	–	–
CC(=O)Nc1cccc(-c2ccc3c(c2)N(CCc2ccccc2)C(=O)COC3)c1 [Compound 164]	1.82	1.82	–	–
Cn1cc(-c2ccc3c(c2)COCC(=O)N3Cc2ccccc2)cn1 [Compound 58]	0.8104	0.8104	–	–
O=C1COCc2ccc(-c3cccc(C(F)(F)F)c3)cc2N1CCN1CCOCC1 [Compound 184]	-1.964	-1.964	–	–
COc1ccc(-c2ccc3c(c2)N(Cc2ccccc2)C(=O)COC3)cc1 [Compound 100]	3.027	3.027	–	–
CC(C)Oc1cccc(-c2ccc3c(c2)N(CCN2CCOCC2)C(=O)COC3)c1 [Compound 180]	-1.713	-1.713	–	–
O=C1COCc2cc(Br)ccc2N1Cc1ccccc1 [Compound 54]	0.1915	0.1915	–	–
O=C1COCc2cc(Br)ccc2N1CCc1ccccc1 [Compound 79]	-0.767	-0.767	–	–
COCCN1C(=O)COCc2ccc(-c3ccc(F)c(Cl)c3)cc21 [Compound 83]	1.936	1.936	–	–
CCN(CC)C(=O)c1cccc(-c2ccc3c(c2)N(Cc2ccccc2)C(=O)COC3)c1 [Compound 187]	–	7.09	12.6188	9.854
O=C1COCc2ccc(-c3ccncc3)cc2N1Cc1ccccc1 [Compound 49]	-0.743	-0.743	–	–
COCc1cccc(-c2ccc3c(c2)N(Cc2cccc(OC)c2)C(=O)COC3)c1 [Compound 172]	-0.3707	-0.3707	–	–
O=C1COCc2cc(-c3cccc(O)c3)ccc2N1Cc1ccc2c(c1)OCO2 [Compound 140]	-0.481	-0.481	–	–
COCCN1C(=O)COCc2ccc(-c3ccccc3C)cc21 [Compound 36]	-1.658	-1.658	–	–
COCCN1C(=O)COCc2ccc(-c3ccc(F)cc3OC)cc21 [Compound 77]	0.2033	0.2033	–	–
COc1cc(F)ccc1-c1ccc2c(c1)COCC(=O)N2Cc1cc(F)cc(F)c1 [Compound 182]	-0.8244	-0.8244	–	–
O=C1COCc2cc(-c3ccncc3)ccc2N1CCc1ccccc1 [Compound 75]	2.679	2.679	–	–

Reference: publication PMC5321434, “Dihydrobenz[e][1,4]oxazepin-2(3H)-ones, a new anthelmintic chemotype immobilising whipworm and reducing infectivity in vivo” (PLoS Neglected Tropical Diseases, 2017)
